Among the test systems are A498; CAKI-1; CCRF-CEM; COLO 205; DU-145; EKVX; HCC 2998; HCT-15; Hs-578T; KM12; LOX IMVI; M14; MDA-MB-231; NCI/ADR-RES; OVCAR-3; SN12C; SNB-19; SW-620; T47D; UACC-62.
Holding throughout (assay): NCI-60 cell line screen, 48 h

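Each compound was tested at five concentrations against cells in 96-well plates for 48 hours. Abbreviation: GI50, concentration required for 50% inhibition of growth.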 Activity calls are given as the source filed them. Cut-off read from the data, not from the text of the source: active = GI50 up to about 1.1 µM and inactive = higher.

As to `COC(=O)/C=C/CC(=O)NS(C)(=O)=O`, the GI50 in the assay on A498, in the assay with CAKI-1, in the assay with CCRF-CEM, in the assay on COLO 205, with DU-145 and in the assay with EKVX was > 10 µM (inactive) in each case. Besides, the GI50 is > 10 µM (inactive) with HCC 2998; above 10 µM in the assay with HCT-15; > 10 µM (inactive) in the assay on Hs-578T; > 10 µM (inactive) in the assay with KM12; > 10 µM (inactive) in the assay with LOX IMVI; > 10 µM (inactive) with M14. In addition, the GI50 with MDA-MB-231, with NCI/ADR-RES, in the assay on OVCAR-3, in the assay on SN12C, with SNB-19 and with SW-620 was > 10 µM (inactive) throughout. For the same molecule, the GI50 with T47D and in the assay with UACC-62 was > 10 µM (inactive) throughout.
In the case of `CCOC(=O)C1C(c2ccc(OC)cc2)c2c(n[nH]c2O)CC1(O)OCC` (stereo not given), the GI50 with A498, in the assay with CAKI-1, with CCRF-CEM, with COLO 205, with DU-145 and in the assay on EKVX was > 100 µM (inactive) each time. For the same molecule, the GI50 in the assay with HCC 2998 was > 100 µM (inactive); with HCT-15, above 100 µM; in the assay with Hs-578T, > 100 µM (inactive); in the assay on KM12, > 100 µM (inactive); in the assay on LOX IMVI, > 100 µM (inactive); in the assay on M14, > 100 µM (inactive). For the same molecule, the GI50 in the assay on MDA-MB-231, in the assay on NCI/ADR-RES, in the assay with OVCAR-3, in the assay on SN12C, in the assay with SNB-19 and in the assay on SW-620 was > 100 µM (inactive) throughout. In addition, the GI50 in the assay on T47D and in the assay with UACC-62 was > 100 µM (inactive) each time.
In the case of `CCOC(=O)C(NC(=O)CC)(Nc1ccc(S(=O)(=O)Nc2ccc(OC)nn2)cc1)C(F)(F)F` (stereo not given), the GI50 with A498, with CAKI-1, in the assay with CCRF-CEM, with COLO 205, in the assay with DU-145 and in the assay on EKVX was > 100 µM (inactive) each time. Also, the GI50 with HCC 2998 was 27.4 µM (inactive); in the assay on HCT-15 it was above 100 µM; with Hs-578T, > 100 µM (inactive); with KM12, > 100 µM (inactive); in the assay with LOX IMVI, > 100 µM (inactive); in the assay on M14, > 100 µM (inactive). Besides, the GI50 in the assay on MDA-MB-231, in the assay on NCI/ADR-RES, with OVCAR-3, in the assay on SN12C, with SNB-19 and in the assay with SW-620 was > 100 µM (inactive) in each case. In addition, the GI50 in the assay on T47D and in the assay on UACC-62 was > 100 µM (inactive) in each case.
For the molecule `C=CCNC1=C2C[C@@H](C)C[C@@H](OC)[C@H](OC(=O)CCN(C)C)[C@H](C)/C=C(\C)[C@@H](OC(N)=O)[C@H](OC)/C=C\C=C(/C)C(=O)NC(=CC1=O)C2=O`, the GI50 with A498 is 0.297 µM (active); with CAKI-1, 1.88 µM (inactive); in the assay on CCRF-CEM, 3.09 µM (inactive); in the assay with COLO 205 it was < 0.0188 µM (active); in the assay on DU-145 it was 0.993 µM (active); with EKVX, 1.35 µM (inactive). Also, the GI50 in the assay with HCC 2998 is 0.0641 µM (active); in the assay with HCT-15 it was 0.535 µM; in the assay on Hs-578T, 12.1 µM (inactive); with KM12, 0.0342 µM (active); with LOX IMVI, 0.0993 µM (active); in the assay on M14, 0.0622 µM (active). The GI50 in the assay on MDA-MB-231 is 2.05 µM (inactive); in the assay on NCI/ADR-RES, 8.51 µM (inactive); in the assay on OVCAR-3, 0.205 µM (active); with SN12C it was 0.0869 µM (active); with SNB-19 it was 1.17 µM (inactive); in the assay on SW-620 it was 0.0578 µM (active). Moreover, the GI50 in the assay on T47D was 1.13 µM (inactive); in the assay with UACC-62, 0.0545 µM (active).
As to `Cc1ccccc1NC(=O)CC(=O)NNC(Sc1ccccc1)c1cc(/N=N/c2ccc(Br)cc2)ccc1O` (stereo not given), the GI50 was 2.4 µM (inactive) in the assay with A498; 2.53 µM (inactive) in the assay on CAKI-1; 0.43 µM (active) in the assay on CCRF-CEM; 3.1 µM (inactive) in the assay with COLO 205; 2.21 µM (inactive) in the assay with DU-145; 5.02 µM (inactive) in the assay with EKVX. Further, the GI50 was 7.36 µM (inactive) in the assay with HCC 2998; 0.836 µM with HCT-15; > 10 µM (inactive) in the assay with Hs-578T; 4.79 µM (inactive) in the assay with KM12; 1.49 µM (inactive) in the assay on LOX IMVI; 0.723 µM (active) in the assay on M14. Also, the GI50 is 1.14 µM (inactive) in the assay with MDA-MB-231; 1.71 µM (inactive) in the assay with NCI/ADR-RES; 0.368 µM (active) with OVCAR-3; 2.49 µM (inactive) in the assay on SN12C; 9.48 µM (inactive) with SNB-19; 0.723 µM (active) in the assay on SW-620. Also, the GI50 in the assay with T47D is 3.93 µM (inactive); in the assay with UACC-62, 1 µM (active).
Take `Cc1ccc(S(=O)(=O)N2CCN(CCN(C)CCN3CCN(S(=O)(=O)c4ccc(C)cc4)CC3)CC2)cc1`: the GI50 is 16.4 µM (inactive) with A498; 19.4 µM (inactive) in the assay with CAKI-1; 18.7 µM (inactive) in the assay with CCRF-CEM; 18.2 µM (inactive) with COLO 205; 16 µM (inactive) in the assay on DU-145; 22.5 µM (inactive) with EKVX. Also, the GI50 in the assay with HCC 2998 was 15.9 µM (inactive); in the assay with HCT-15, 17.6 µM; in the assay with Hs-578T it was 22.3 µM (inactive); with KM12, 15.1 µM (inactive); in the assay with LOX IMVI, 17.2 µM (inactive); in the assay with M14 it was 17.2 µM (inactive). Moreover, the GI50 was 20.6 µM (inactive) with MDA-MB-231; 20 µM (inactive) with NCI/ADR-RES; 16.7 µM (inactive) in the assay with OVCAR-3; 18.5 µM (inactive) with SN12C; 26.2 µM (inactive) in the assay on SNB-19; 16.9 µM (inactive) in the assay on SW-620. Also, the GI50 in the assay with T47D was 19.3 µM (inactive); in the assay on UACC-62 it was 17.9 µM (inactive).

The record behind these values is ChEMBL document CHEMBL1201862, “PubChem BioAssay data set” (2004).
